{"source": "patent US20030232101A1", "about": "“Topical formulations of resorcinols and cannibinoids and methods of use” (Immugen Pharmaceuticals, Inc., priority 2002, published 2003)", "key": {"HIV-1 strain RoJo": {"system": "HIV-1 strain RoJo", "assay": "PBMC time of addition assay (RT activity in supernatant at 6 days)", "assay_type": "cell-based", "details": "for IC50: read-out: IC50", "description": "(§1) Human peripheral blood mononuclear cells (PBMCs) from a minimum of 2 donors, that have been blasted with PHA and IL-2, were counted, viability determined by Trypan Blue dye exclusion and mixed in equal ratios. Pooled donors were used to minimize the variability observed between individual donors which results from quantitative and qualitative differences in HIV infection and overall response to the PHA and IL-2 of primary lymphocyte populations. The cells were resuspended at 1×10^6 cells /mL in RPMI 1640 without phenol red supplemented with 15% Fetal Bovine Serum (heat inactivated), 2 mM L-glutamine, 100 U/mL penicillin, 100 μg/mL streptomycin, 10 μg/mL gentamycin and IL-2 (20 U/mL, R&D Systems, Minneapolis, Minn.). Fifty microliters of cells were then distributed to the inner 60 wells of a 96 well round bottom microtiter culture plate in a standard format developed by the Infectious Disease Research department of Southern Research Institute. Each plate contains cell control wells (cells only), virus control wells (cells plus virus), and experimental wells (drug plus cells plus virus). Alternatively, cells were cultured in T25 cm^2 or T75 cm^2 tissue culture flasks at a starting density of 1×10^6 cells per ml. Serially diluted compounds were added to the microtiter plate or tissue culture flask followed by the appropriate pre-titered strain of HIV-1. For virus replication inhibition experiments the HIV-1 strain RoJo was used. This is a low passage presumable subtype B pediatric isolate with a syncytium inducing (SI) phenotype in MT-2 cells isolated by Southern Research Institute personnel. All samples were assayed in triplicate where possible with an accompanying determination of compound toxicity. The final volume per well in the microtiter plates was 200 μL. The final volume in the tissue culture flask varied depending upon experimental design and flask size. Assays were incubated for 6 days in a humidified atmosphere at 37° C., 5% CO^2, after which supernatants were collected, for analysis of RT activity and cell viability by MTS dye reduction. Culture were also examined microscopically, any abnormalities noted, and in the case of tissue culture flasks cell counts and viability determined by Trypan Blue Dye exclusion.\n(§2) Time of addition assays were performed with PBMCs in two ways. For both assays, PBMCs were isolated and cultured under the conditions as described above. Time of addition assays were carried out in either a tissue culture flask format (T-75 cm^2) or in microtiter wells. In both cases due to the lack of plastic adherence and heterogeneity of the PBMC population for susceptibility to infection, it was not possible to use complete removal of virus following a timed adsorption to synchronize the infection and limit the assay to a single round of infection. Therefore, serial washing by partial removal of the media was used to reduce the concentration of virus and compound (if required) in the assay. Compound addition in relationship to antiviral activity was either assessed over a short addition interval immediately before or after virus addition or for up to 72 h post infection. For all assays virus replication was assessed at 6 days of culture by determining RT expression in cell-free supernatants. In the tissue culture flask format cells were counted and Trypan Blue Dye exclusion used to monitor compound cytotoxicity. Cell viability in the 96 well microtiter plate format was determined by MTS dye reduction. AZT was used as a positive control.\nReverse transcriptase activity was measured in cell-free supernatants. Tritiated thymidine triphosphate (NEN) (TTP) was resuspended in distilled H2O at 5 Ci/mL. Poly rA and oligo dT were prepared as a stock solution which was kept at −20° C. The RT reaction buffer was prepared fresh on a daily basis and consists of 125 μL 1.0 M EGTA, 125 μL dH2O, 110 μL 10% SDS, 50 μL 1.0 M Tris (pH 7.4), 50 μL 1.0 M DTT, and 40 μL 1.0 M MgCl2. […]"}, "[1]": {"system": "peripheral blood mononuclear cells (PBMCs)", "assay": "PBMC cell viability in time of addition assay (MTS / Trypan Blue)", "assay_type": "cell-based, Human", "details": "read-out: TC50 (the source's name)", "description": "as §1, §2\nAt assay termination the assay plates were stained with the soluble tetrazolium-based dye MTS (CellTiter96® Reagent Promega) to determine cell viability and quantify compound toxicity. MTS is metabolized by the mitochondria enzymes of metabolically active cells to a soluble formazan product, allowing the rapid quantitative analysis cell viability and compound cytotoxicity. […] At termination of the assay 20 μL of MTS reagent was added per well and incubated for 4 h at 37° C. […]"}, "IIIB strain of HIV-1": {"system": "IIIB strain of HIV-1", "assay": "Virus attachment assay, HeLa CD4 LTR β-gal cells (Experimental Example 2)", "assay_type": "cell-based", "details": "virus adsorption interval 1 to 2 h", "procedure": "This assay detects compounds that block virus attachment using HeLa CD4 LTR β-gal cells. HeLa CD4 LTR β-gal cells were cultured with selection antibiotics. Twenty-four h prior to initiation of the assay, the cells were trypsinized, counted and plated in a 0.2 cm well in media without selection antibiotics. At 24 h media is removed and compound in media placed on the cells and incubated for 15 min at 37° C. A known titer of the IIIB strain of HIV-1 was then added to the wells and the incubation continued for 1 to 2 h. At the end of the incubation the wells were washed 2 times with media and the culture continued for 40 to 48 h. At termination of the assay, media is removed and β-galactosidase enzyme expression determined by chemiluminescence per manufacturer's instructions (Tropix Gal-screen, Bedford Mass.). Compound toxicity is monitored on a sister plate by XTT or MTS dye reduction. All determinations are performed in triplicate with serial_Log10 dilution of the test materials."}, "HIV-1 (96USHIPS7 strain)": {"system": "HIV-1 (96USHIPS7 strain)", "assay": "HIV attachment assay in PBMCs (cell-associated p24)", "assay_type": "cell-based", "details": "time 0 h", "procedure": "ELISA kits were purchased from Coulter Electronics. The assay was performed according to the manufacturer's instructions. Control curves were generated in each assay to accurately quantitate the amount of p24 antigen in each sample. For experiments using cell lysates. Fifty thousand (5×10^4) viable cells were lysed in Coulter ELISA buffer and subjected to 1 round of freeze/thawed to liberate trapped p24 and p24 detected per manufacturers instructions. HIV capsid protein (p24) was quantitated spectrophotometrically at 450 nm using a Molecular Devices Vmax plate reader using a standard curve. Final concentrations were calculated from the optical density values using the Molecular Devices Soft Max software package.\nThe attachment assay with PBMCs was performed as follows. Briefly, 1×10^6 PHA/IL-2 PBMCs were incubated for 0, 2, 4 and 24 hours with IMG compounds and cannabidiol in polypropylene tubes. A pre-titered amount of HIV-1 (96USHIPS7 strain, obtained from the AIDS Research and Reference Reagent Program ) was added in the presence of compound and incubated for 3 h at 37° C. After incubation the cultures were washed 3 times (400×g, 10 min, 4° C.) with media (1:25,000 dilution of input p24), the cell pellets lysed with p24 lysing buffer (Coulter) and p24 content determined by ELISA.\nPBMCs pretreated with compounds for 0, 2, 4, and 24 were incubated with cell-free HIV-1 for 3 h and the excess unbound HIV removed. The assessed the amount of HIV bound to the cell was then assessed by measuring cell-associated p24 content of total cell lysates."}}, "note": "Read-outs that look alike come from different tables or passages of the source."}
{"compound": "Cc1cn([C@H]2C[C@H](N=[N+]=[N-])[C@@H](CO)O2)c(=O)[nH]c1=O", "note": "[AZT, reference compound]", "values": [{"measurement": "enhancement of activity", "setting": "HIV-1 strain RoJo; 4 h preincubation", "result": 4.6, "unit": "fold"}, {"measurement": "IC50", "setting": "HIV-1 strain RoJo; addition prior to infection, pre-treatment 0 h", "result": 1, "unit": "nM"}, {"measurement": "IC50", "setting": "HIV-1 strain RoJo; addition prior to infection, pre-treatment 2 h", "result": 1, "unit": "nM"}, {"measurement": "IC50", "setting": "HIV-1 strain RoJo; addition prior to infection, pre-treatment 4 h", "result": 1, "unit": "nM"}, {"measurement": "IC50", "setting": "HIV-1 strain RoJo; addition prior to infection, pre-treatment 24 h", "result": 3, "unit": "nM"}, {"measurement": "IC50", "setting": "HIV-1 strain RoJo; treatment 6 h post", "result": 4.6, "unit": "nM"}, {"measurement": "IC50", "setting": "HIV-1 strain RoJo; treatment at infection", "result": 3.7, "unit": "nM"}, {"measurement": "IC50", "setting": "HIV-1 strain RoJo; treatment −4 h pre", "result": 0.8, "unit": "nM"}, {"measurement": "CC50", "setting": "[1]; treatment 6 h post", "result": "> 4", "unit": "µM"}, {"measurement": "CC50", "setting": "[1]; treatment at infection", "result": "> 4", "unit": "µM"}, {"measurement": "CC50", "setting": "[1]; treatment −4 h pre", "result": "> 4", "unit": "µM"}, {"measurement": "activity in virus attachment assay", "setting": "IIIB strain of HIV-1", "result": "not active"}]}
{"compound": "Cc1ccnc2c1NC(=O)c1cccnc1N2C1CC1", "note": "[Nevirapine, reference compound]", "values": [{"measurement": "% Control", "setting": "HIV-1 (96USHIPS7 strain); 10 μM", "result": 81.2, "unit": "%"}, {"measurement": "pg p24", "setting": "HIV-1 (96USHIPS7 strain); 10 μM", "result": 311.7, "unit": "pg"}, {"measurement": "suppression of virus attachment", "setting": "HIV-1 (96USHIPS7 strain); 10 μM", "result": 19, "unit": "% suppression"}, {"measurement": "suppression of virus attachment", "setting": "HIV-1 (96USHIPS7 strain); 10 μM, listed as nevaripine", "result": 19, "unit": "%"}]}
{"compound": "Dextran Sulfate [reference compound]", "values": [{"measurement": "% Control", "setting": "HIV-1 (96USHIPS7 strain); 20 μg/ml", "result": 57.6, "unit": "%"}, {"measurement": "pg p24", "setting": "HIV-1 (96USHIPS7 strain); 20 μg/ml", "result": 221, "unit": "pg"}, {"measurement": "suppression of virus attachment", "setting": "HIV-1 (96USHIPS7 strain); 20 μg/ml", "result": 43.4, "unit": "% suppression"}, {"measurement": "suppression of virus attachment", "setting": "HIV-1 (96USHIPS7 strain); 20 μg/ml, listed as dextran sulfate", "result": 43.4, "unit": "%"}]}
